The test system of one experiment is ATGL. As to the kind of experiment: In vivo study: ATGL level in mouse liver. Also noted: species or system C57BL/6 mice. Particulars: 30 mg/kg orally. How it is done: (§1) 6-8 weeks old healthy female C57BL/6 mice (average weight: 25 grams) were taken for the study. These were then divided into three groups comprising of three mice per group (Control, compound 107 fed for 8 hours and compound 107 fed for 16 hours). Mice were fed with 30 mg/kg of compound 107 orally. The compound was dissolved in 25% DMSO and 75% PBS. The control group was fed only with the solvent in which the compound was dissolved. Post 8 hours and 16 hours of feeding, mice were sacrificed and a portion of the excised liver tissue was homogenized in lysis buffer containing protease inhibitor cocktail. The homogenate was centrifuged at 20,000 g for 30 minutes following which the supernatant containing the protein lysate was collected. The lysate was then diluted accordingly and protein estimation was carried out by Bradford Assay. This was followed by Western Blotting wherein the levels of ATGL and COP1 were checked. Actin was used as the loading control.

Another experiment has as its target COP1 (Mus musculus, UniProt Q9R1A8). As to the kind of experiment: In vivo study: COP1 level in mouse liver. The note with it: 30 mg/kg orally. Also noted: from tissue; host or cells: mouse liver (in vivo dosing); species or system C57BL/6 mice. The procedure:
as §1

Structures are written as SMILES. “Also recorded” adds a separate entry of the source.

Experimental findings from patent publication US12528777B2, “Quinazolinones derivatives for treatment of non-alcoholic fatty liver disease, preparation and use thereof” (Council of Scientific and Industrial Research, priority 2020, dated 2026) are described below.

Chain of COP1 (Q9R1A8 whole entry): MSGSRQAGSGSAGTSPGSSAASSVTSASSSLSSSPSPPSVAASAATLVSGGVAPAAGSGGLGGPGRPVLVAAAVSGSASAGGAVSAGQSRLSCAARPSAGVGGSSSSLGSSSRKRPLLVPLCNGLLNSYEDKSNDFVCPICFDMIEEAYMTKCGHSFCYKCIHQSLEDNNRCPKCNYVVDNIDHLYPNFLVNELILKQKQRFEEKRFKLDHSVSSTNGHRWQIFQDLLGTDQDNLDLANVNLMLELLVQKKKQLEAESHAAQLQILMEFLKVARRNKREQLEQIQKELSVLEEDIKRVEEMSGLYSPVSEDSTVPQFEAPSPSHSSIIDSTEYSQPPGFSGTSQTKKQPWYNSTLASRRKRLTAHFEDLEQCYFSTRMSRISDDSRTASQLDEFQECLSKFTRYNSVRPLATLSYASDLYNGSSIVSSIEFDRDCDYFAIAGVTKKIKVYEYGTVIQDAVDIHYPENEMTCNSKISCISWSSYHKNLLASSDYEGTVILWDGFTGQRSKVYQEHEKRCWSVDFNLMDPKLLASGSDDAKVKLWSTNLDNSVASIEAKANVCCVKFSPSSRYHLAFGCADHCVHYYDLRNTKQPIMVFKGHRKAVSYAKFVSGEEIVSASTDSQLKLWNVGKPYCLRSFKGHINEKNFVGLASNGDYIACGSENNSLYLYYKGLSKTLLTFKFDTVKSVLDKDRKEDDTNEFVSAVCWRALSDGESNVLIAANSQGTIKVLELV

In the case of `COCCn1c(C)nc2ccc(NC(=O)Nc3cccc(C(C)=O)c3)cc2c1=O` [Compound 107, 1-(3-acetylphenyl)-3-(3-(2-methoxyethyl)-2-methyl-4-oxo-3,4-dihydroquinazolin-6-yl)urea], the “ATGL level in liver, 8 hours after feeding” value in the experiment on ATGL (8 hours) is recorded as “modestly increase ATGL level; also recorded: no significant impact”. Further, in the experiment on ATGL (16 hours), the “ATGL level in liver, 16 hours after feeding” value is “modestly increase ATGL level; also recorded: effective in increasing ATGL and COP1 levels”. Also, on COP1, the “COP1 level in liver, 8 hours after feeding” value is “no such effect on COP1; also recorded: no significant impact”.
